System: MV-4-11 cells
Assay: Gene expression microarray analysis (Affymetrix PrimeView) and GSEA
Assay type: cell-based, human
Set-up: RFU PODN (11730768_x_at) / Fold change /veh PODN (11730768_x_at) / RFU LINC00158 (11744669_a_at) / Fold change /veh LINC00158 (11744669_a_at) / RFU DUSP10 (11751237_a_at) / Fold change /veh DUSP10 (11751237_a_at) / RFU ID3 (11757404_x_at) / Fold change /veh ID3 (11757404_x_at) / RFU PLEKHG5 (11737974_s_at) / Fold change /veh PLEKHG5 (11737974_s_at) / RFU LRRC4B (11730491_at) / Fold change /veh LRRC4B (11730491_at) / RFU GIMAP4 (11747438_a_at) / Fold change /veh GIMAP4 (11747438_a_at) / RFU KRT8 (11758183_x_at) / Fold change /veh KRT8 (11758183_x_at) / RFU CNN1 (11734310_a_at) / Fold change /veh CNN1 (11734310_a_at) / RFU VPS37D (11726825_at) / Fold change /veh VPS37D (11726825_at) / RFU C10orf10 (11716522_x_at) / Fold change /veh C10orf10 (11716522_x_at) / RFU KIR2DL2 /// KIR2DL4 /// KIR2DL5A /// KIR2DL5B /// KIR2DS1 /// KIR2DS2 /// KIR2DS3 /// KIR2DS4 /// KIR3DL3 /// KIR3DL3 /// KIR3DS1 (11738374_at) / Fold change /veh KIR2DL2 /// KIR2DL4 /// KIR2DL5A /// KIR2DL5B /// KIR2DS1 /// KIR2DS2 /// KIR2DS3 /// KIR2DS4 /// KIR3DL3 /// KIR3DL3 /// KIR3DS1 (11738374_at) / RFU C1QL1 (11718748_at) / Fold change /veh C1QL1 (11718748_at) / RFU TMPRSS4 (11747572_a_at) / Fold change /veh TMPRSS4 (11747572_a_at) / RFU HAMP (11756126_x_at) / Fold change /veh HAMP (11756126_x_at) / RFU RNFT2 (11725882_a_at) / Fold change /veh RNFT2 (11725882_a_at) / RFU NR4A2 (11747474_a_at) / Fold change /veh NR4A2 (11747474_a_at) / RFU ABCC12 (11746883_a_at) / Fold change /veh ABCC12 (11746883_a_at) / RFU TMEM136 (11760407_x_at) / Fold change /veh TMEM136 (11760407_x_at) / RFU CLDN22 /// WWC2 (11732394_at) / Fold change /veh CLDN22 /// WWC2 (11732394_at) / RFU HLA-DPB1 (11760878_x_at) / Fold change /veh HLA-DPB1 (11760878_x_at) / RFU SPINT1 (11716480_a_at) / Fold change /veh SPINT1 (11716480_a_at) / RFU GAP43 (11754022_s_at) / Fold change /veh GAP43 (11754022_s_at) / RFU A4GNT (11735810_at) / Fold change /veh A4GNT (11735810_at) / RFU PRB3 (11715151_x_at) / Fold change /veh PRB3 (11715151_x_at) / RFU TUBB4B (11761932_at) / Fold change /veh TUBB4B (11761932_at) / RFU CAPN14 (11732068_a_at) / Fold change /veh CAPN14 (11732068_a_at) / RFU TMCC2 (11721928_a_at) / Fold change /veh TMCC2 (11721928_a_at) / RFU IRGQ (11745062_a_at) / Fold change /veh IRGQ (11745062_a_at) / RFU FAM174B (11720279_a_at) / Fold change /veh FAM174B (11720279_a_at) / RFU TMPRSS4 (11748680_a_at) / Fold change /veh TMPRSS4 (11748680_a_at) / RFU FAM212B (11763350_a_at) / Fold change /veh FAM212B (11763350_a_at) / RFU PLEKHG5 (11743358_a_at) / Fold change /veh PLEKHG5 (11743358_a_at) / RFU ZSCAN30 (11745921_a_at) / Fold change /veh ZSCAN30 (11745921_a_at) / RFU CMKLR1 (11741424_a_at) / Fold change /veh CMKLR1 (11741424_a_at) / RFU LOC101060620 /// MAPK8IP1 (11723275_at) / Fold change /veh LOC101060620 /// MAPK8IP1 (11723275_at) / RFU SPTSSB (11747773_x_at) / Fold change /veh SPTSSB (11747773_x_at) / RFU PRSS12 (11739890_at) / Fold change /veh PRSS12 (11739890_at) / RFU BIN1 (11741810_x_at) / Fold change /veh BIN1 (11741810_x_at) / RFU WNT11 (11732464_a_at) / Fold change /veh WNT11 (11732464_a_at) / RFU C10orf10 (11716521_a_at) / Fold change /veh C10orf10 (11716521_a_at) / RFU C5orf56 (11738089_at) / Fold change /veh C5orf56 (11738089_at) / RFU CYB561 (11721691_x_at) / Fold change /veh CYB561 (11721691_x_at) / RFU ANKRD19P (11752326_a_at) / Fold change /veh ANKRD19P (11752326_a_at) / RFU OR2T12 /// OR2T33 /// OR2T8 (11738714_s_at) / Fold change /veh OR2T12 /// OR2T33 /// OR2T8 (11738714_s_at) / RFU VCAN (11748164_a_at) / Fold change /veh VCAN (11748164_a_at) / RFU JSRP1 (11732532_at) / Fold change /veh JSRP1 (11732532_at) / RFU KRTAP10-11 (11738290_x_at) / Fold change /veh KRTAP10-11 (11738290_x_at) / RFU MYO3A (11730013_a_at) / Fold change /veh MYO3A (11730013_a_at) / RFU EBF3 (11725865_a_at) / Fold change /veh EBF3 (11725865_a_at) / RFU CAMK2N1 (11719241_x_at) / Fold change /veh CAMK2N1 (11719241_x_at) / RFU C5orf56 (11738088_a_at) / Fold change /veh C5orf56 (11738088_a_at) / RFU OLFML3 (11715873_a_at) / Fold change /veh OLFML3 (11715873_a_at) / RFU LOC100653217 /// NTM (11731650_a_at) / Fold change /veh LOC100653217 /// NTM (11731650_a_at) / RFU MAPK11 (11762145_a_at) / Fold change /veh MAPK11 (11762145_a_at) / RFU FIZ1 (11724087_x_at) / Fold change /veh FIZ1 (11724087_x_at) / RFU OASL (11726364_x_at) / Fold change /veh OASL (11726364_x_at) / RFU SOX15 (11748057_x_at) / Fold change /veh SOX15 (11748057_x_at) / RFU CD79A (11719716_a_at) / Fold change /veh CD79A (11719716_a_at) / RFU HIST1H1D (11736915_at) / Fold change /veh HIST1H1D (11736915_at) / RFU CASKIN2 (11723855_a_at) / Fold change /veh CASKIN2 (11723855_a_at) / RFU LOC730098 (11760151_x_at) / Fold change /veh LOC730098 (11760151_x_at) / RFU OR4N2 (11742367_at) / Fold change /veh OR4N2 (11742367_at) / RFU PRRT2 (11749266_a_at) / Fold change /veh PRRT2 (11749266_a_at) / RFU SNX32 (11753110_a_at) / Fold change /veh SNX32 (11753110_a_at) / RFU CDHR5 (11726645_a_at) / Fold change /veh CDHR5 (11726645_a_at) / RFU RCAN1 (11760418_a_at) / Fold change /veh RCAN1 (11760418_a_at) / RFU FAM167A (11723789_a_at) / Fold change /veh FAM167A (11723789_a_at) / RFU FAM26E (11764081_at) / Fold change /veh FAM26E (11764081_at) / RFU ISYNA1 (11749810_s_at) / Fold change /veh ISYNA1 (11749810_s_at) / RFU ACY1 (11761880_at) / Fold change /veh ACY1 (11761880_at) / RFU 11764098_at / Fold change /veh 11764098_at / RFU SAMD14 (11745864_x_at) / Fold change /veh SAMD14 (11745864_x_at) / RFU NPB (11741838_a_at) / Fold change /veh NPB (11741838_a_at) / RFU TMPRSS6 (11731388_a_at) / Fold change /veh TMPRSS6 (11731388_a_at) / RFU KRTAP10-2 (11738614_at) / Fold change /veh KRTAP10-2 (11738614_at) / RFU ARHGAP8 /// PRR5-ARHGAP8 (11727945_x_at) / Fold change /veh ARHGAP8 /// PRR5-ARHGAP8 (11727945_x_at) / RFU KRTAP5-7 /// NADSYN1 (11734609_at) / Fold change /veh KRTAP5-7 /// NADSYN1 (11734609_at) / RFU RASL12 (11751679_a_at) / Fold change /veh RASL12 (11751679_a_at) / RFU CDKN2B (11736163_a_at) / Fold change /veh CDKN2B (11736163_a_at) / RFU PRF1 (11729649_at) / Fold change /veh PRF1 (11729649_at) / RFU, ZNF638 /// ZNF638-IT1 / Fold change vs veh, ZNF638 /// ZNF638-IT1 / RFU, PANK3 / Fold change vs veh, PANK3 / RFU, SH3YL1 / Fold change vs veh, SH3YL1 / RFU, ZEB2 / Fold change vs veh, ZEB2 / RFU, NRIP1 / Fold change vs veh, NRIP1 / RFU, PTTG1IP / Fold change vs veh, PTTG1IP / RFU, CAPN2 / Fold change vs veh, CAPN2 / RFU, MED14 / Fold change vs veh, MED14 / RFU, SNORA58 / Fold change vs veh, SNORA58 / RFU, C1orf63 / Fold change vs veh, C1orf63 / RFU, LRRFIP1 / Fold change vs veh, LRRFIP1 / RFU, NDUFAF7 / Fold change vs veh, NDUFAF7 / RFU, SLC12A2 / Fold change vs veh, SLC12A2 / RFU, IBTK / Fold change vs veh, IBTK / RFU, ESF1 / Fold change vs veh, ESF1 / Fold change vs veh, TMEM50B / RFU, TAOK1 / Fold change vs veh, TAOK1 / RFU, ACBD3 / Fold change vs veh, ACBD3 / RFU, TMA16 / Fold change vs veh, TMA16 / RFU, RWDD3 / Fold change vs veh, RWDD3 / RFU, BCAT1 / Fold change vs veh, BCAT1 / RFU, EDEM3 / Fold change vs veh, EDEM3 / RFU, TMEM33 / Fold change vs veh, TMEM33 / RFU, WDR75 / Fold change vs veh, WDR75 / RFU, AHCTF1 / Fold change vs veh, AHCTF1 / RFU, TFRC / Fold change vs veh, TFRC / RFU, ZDHHC17 / Fold change vs veh, ZDHHC17 / RFU, NOM1 / Fold change vs veh, NOM1 / RFU, ARL8B / Fold change vs veh, ARL8B / RFU, ZBTB11 / Fold change vs veh, ZBTB11 / RFU, TAMM41 / Fold change vs veh, TAMM41 / RFU, KIAA1704 /// LOC100996395 / Fold change vs veh, KIAA1704 /// LOC100996395 / RFU, ING1 / Fold change vs veh, ING1 / RFU, TRMT61B / Fold change vs veh, TRMT61B / RFU, FUBP3 / Fold change vs veh, FUBP3 / RFU, TP53 / Fold change vs veh, TP53 / RFU, TNKS2 / Fold change vs veh, TNKS2 / RFU, ZFP14 / Fold change vs veh, ZFP14 / RFU, ACTR2 / Fold change vs veh, ACTR2 / RFU, PPP3R1 / Fold change vs veh, PPP3R1 / RFU, PIK3R1 / Fold change vs veh, PIK3R1 / RFU, HNRNPA1 / Fold change vs veh, HNRNPA1 / RFU, RNF170 / Fold change vs veh, RNF170 / RFU, ZNF28 / Fold change vs veh, ZNF28 / RFU, RNGTT / Fold change vs veh, RNGTT / RFU, OGT / Fold change vs veh, OGT / RFU, BRD1 / Fold change vs veh, BRD1 / RFU, MARS / Fold change vs veh, MARS / RFU, ZNF655 / Fold change vs veh, ZNF655 / RFU, FAHD1 / Fold change vs veh, FAHD1 / RFU, BDP1 / Fold change vs veh, BDP1 / RFU, LRRCC1 / Fold change vs veh, LRRCC1 / RFU, ARID1A / Fold change vs veh, ARID1A / RFU, ZNF146 / Fold change vs veh, ZNF146 / RFU, ZNF330 / Fold change vs veh, ZNF330 / RFU, GPN3 / Fold change vs veh, GPN3 / RFU, C9orf123 / Fold change vs veh, C9orf123 / RFU, N4BP2L2 / Fold change vs veh, N4BP2L2 / RFU, ARFIP1 / Fold change vs veh, ARFIP1 / RFU, FAM179B / Fold change vs veh, FAM179B / RFU, BCL10 / Fold change vs veh, BCL10 / RFU, UHRF1BP1L / Fold change vs veh, UHRF1BP1L / RFU, BET1 / Fold change vs veh, BET1 / RFU, CNOT2 / Fold change vs veh, CNOT2 / RFU, ZNF268 / Fold change vs veh, ZNF268 / Fold change vs veh, ZNF507 / RFU, DGCR2 / Fold change vs veh, DGCR2 / RFU, WDSUB1 / Fold change vs veh, WDSUB1 / Fold change vs veh, HSP90B1 /// MIR3652 / RFU, ADSS / Fold change vs veh, ADSS / RFU, GK / Fold change vs veh, GK / RFU, ZNF148 / Fold change vs veh, ZNF148 / RFU, TAF9 / Fold change vs veh, TAF9 / RFU, SLC1A5 / Fold change vs veh, SLC1A5 / RFU, SLMO2 / Fold change vs veh, SLMO2 / RFU, ABCC4 / Fold change vs veh, ABCC4 / RFU, LOC101060439 /// RAP1B / Fold change vs veh, LOC101060439 /// RAP1B / RFU, RFX7 / Fold change vs veh, RFX7 / RFU, GTPBP10 / Fold change vs veh, GTPBP10 / RFU, CNEP1R1 / Fold change vs veh, CNEP1R1 / RFU, BIVM-ERCC5 /// ERCC5 / Fold change vs veh, BIVM-ERCC5 /// ERCC5 / RFU, ILF3 / Fold change vs veh, ILF3 / RFU 11762660_at / Fold change /veh 11762660_at / RFU VCAN (11757783_s_at) / Fold change /veh VCAN (11757783_s_at) / RFU DDX43 (11728927_at) / Fold change /veh DDX43 (11728927_at) / RFU KRT8 (11758188_x_at) / Fold change /veh KRT8 (11758188_x_at) / RFU NKD1 (11759106_at) / Fold change /veh NKD1 (11759106_at) / RFU SRD5A1 (11742802_a_at) / Fold change /veh SRD5A1 (11742802_a_at) / RFU TPSAB1 /// TPSB2 (11721975_s_at) / Fold change /veh TPSAB1 /// TPSB2 (11721975_s_at) / RFU GSTM3 (11746129_a_at) / Fold change /veh GSTM3 (11746129_a_at) / RFU IL23R (11737362_x_at) / Fold change /veh IL23R (11737362_x_at) / RFU TMEM51 (11727254_a_at) / Fold change /veh TMEM51 (11727254_a_at) / RFU PIWIL2 (11732686_x_at) / Fold change /veh PIWIL2 (11732686_x_at) / RFU ORM1 (11744905_x_at) / Fold change /veh ORM1 (11744905_x_at) / RFU CCDC152 (11743942_at) / Fold change /veh CCDC152 (11743942_at) / RFU ECM1 (11717891_a_at) / Fold change /veh ECM1 (11717891_a_at) / RFU IL23R (11748794_a_at) / Fold change /veh IL23R (11748794_a_at) / RFU TNFAIP8L3 (11732012_x_at) / Fold change /veh TNFAIP8L3 (11732012_x_at) / RFU MBOAT4 (11741988_at) / Fold change /veh MBOAT4 (11741988_at) / RFU 11764193_at / Fold change /veh 11764193_at / RFU TMEM53 (11763286_at) / Fold change /veh TMEM53 (11763286_at) / RFU MAGEB2 (11727129_at) / Fold change /veh MAGEB2 (11727129_at) / RFU TMEM200A (11744735_a_at) / Fold change /veh TMEM200A (11744735_a_at) / RFU CCDC152 (11751479_a_at) / Fold change /veh CCDC152 (11751479_a_at) / RFU FAM211A (11726209_a_at) / Fold change /veh FAM211A (11726209_a_at) / RFU RGS16 (11746705_a_at) / Fold change /veh RGS16 (11746705_a_at) / RFU VCAN (11755009_s_at) / Fold change /veh VCAN (11755009_s_at) / RFU RHOB (11743442_s_at) / Fold change /veh RHOB (11743442_s_at) / RFU RGS16 (11720943_a_at) / Fold change /veh RGS16 (11720943_a_at) / RFU RGS16 (11720944_at) / Fold change /veh RGS16 (11720944_at) / RFU, VPS4B / Fold change vs veh, VPS4B / RFU, CREB1 / Fold change vs veh, CREB1 / RFU, DNAJC13 / Fold change vs veh, DNAJC13 / RFU, GNAQ / Fold change vs veh, GNAQ / RFU, CDK5R1 / Fold change vs veh, CDK5R1 / RFU, ZRANB3 / Fold change vs veh, ZRANB3 / RFU, CUL4A / Fold change vs veh, CUL4A / RFU, CCNY / Fold change vs veh, CCNY / RFU, UFL1 / Fold change vs veh, UFL1 / RFU, COG3 / Fold change vs veh, COG3 / RFU, DIAPH2 / Fold change vs veh, DIAPH2 / RFU, SKA2 / Fold change vs veh, SKA2 / RFU, AFF3 / Fold change vs veh, AFF3 / RFU, LMF1 / Fold change vs veh, LMF1 / RFU, IPO11 / Fold change vs veh, IPO11 / RFU, DFFB / Fold change vs veh, DFFB / RFU, FOXP1 / Fold change vs veh, FOXP1 / RFU, CARD8 / Fold change vs veh, CARD8 / RFU, STRN3 / Fold change vs veh, STRN3 / RFU, ADK / Fold change vs veh, ADK / RFU, RASSF2 / Fold change vs veh, RASSF2 / RFU, WIPF1 / Fold change vs veh, WIPF1 / RFU, LARP1B / Fold change vs veh, LARP1B / RFU, RASA1 / Fold change vs veh, RASA1 / RFU, RB1 / Fold change vs veh, RB1 / RFU, PPFIA1 / Fold change vs veh, PPFIA1 / RFU, MAT2A / Fold change vs veh, MAT2A / RFU, CCT5 / Fold change vs veh, CCT5 / RFU, WDR92 / Fold change vs veh, WDR92 / RFU, CUX1 / Fold change vs veh, CUX1 / RFU, TTC7A / Fold change vs veh, TTC7A / RFU, TMEM135 / Fold change vs veh, TMEM135 / RFU, DEPTOR / Fold change vs veh, DEPTOR / RFU, CPM / Fold change vs veh, CPM / RFU, DNAJB6 / Fold change vs veh, DNAJB6 / RFU, CACNA2D3 / Fold change vs veh, CACNA2D3 / RFU, DTX4 / Fold change vs veh, DTX4 / RFU, TFCP2 / Fold change vs veh, TFCP2 / RFU, GMCL1 /// GMCL1P1 / Fold change vs veh, GMCL1 /// GMCL1P1 / RFU, AEBP2 / Fold change vs veh, AEBP2 / RFU, SNHG1 /// SNORD22 /// SNORD25 /// SNORD26 /// SNORD27 /// SNORD28 /// SNORD29 /// SNORD31 / Fold change vs veh, SNHG1 /// SNORD22 /// SNORD25 /// SNORD26 /// SNORD27 /// SNORD28 /// SNORD29 /// SNORD31 / Fold change (Aza/veh), C12orf56 (ProbeSet 11735607_a_at) / Fold change (ACY-1035/veh), C12orf56 (ProbeSet 11735607_a_at) / Fold change (Aza/veh), FGFR1OP (ProbeSet 11751329_s_at) / Fold change (ACY-1035/veh), FGFR1OP (ProbeSet 11751329_s_at) / Fold change (Aza/veh), VPS36 (ProbeSet 11739960_a_at) / Fold change (ACY-1035/veh), VPS36 (ProbeSet 11739960_a_at) / RFU SYPL1 (11715823_x_at) / Fold change /veh SYPL1 (11715823_x_at) / RFU IGFBP7 (11715501_s_at) / Fold change /veh IGFBP7 (11715501_s_at) / RFU REEP3 (11722064_at) / Fold change /veh REEP3 (11722064_at) / RFU IGLL1 (11728026_x_at) / Fold change /veh IGLL1 (11728026_x_at): dose or concentration left out as unconfirmed
Conditions: ProbeSet 11749781_s_at; LIST B

Nc1ccc(-c2cccs2)cc1NC(=O)c1ccc2c(c1)cc(C1CC1)n2CCN1CCOCC1 [ACY-1035]
RFU, BCAT1: 11.38 RFU

Source: PMC5218480 (PLoS ONE, 2017)
